Data set [1] deals with housefly. In words: Study of the killing effect on the housefly (direct spraying, Kearns and March chamber). The data set is classed as in vivo. Conditions: for KT50 (time where 50% of the insects were killed): 4-day old female houseflies, direct spraying, dose 0.25 g/l, Isopar L with 5% acetone. How it is done: A. Study of the killing effect on the housefly.
The insects used were 4-day old female houseflies and the operation was carried out by direct spraying at a concentration of 0.25 g/1 in a Kearns and March chamber. The tested product was dissolved in Isopar L (petroleum solvent) with 5% acetone. 2 ml of solution were sprayed per second and 50 insects were used per treatment Checks were carried out every minute for 10 minutes, then after 15 minutes. The (KT50) time in minutes where 50% of the insects were killed was determined and the results are in Table I.

In data set [2] the test system is cockroaches (Blattella germanica). In words: Study of the knock-down effect on cockroaches (direct spraying). The data set is classed as in vivo. Conditions: for percentage of cockroaches knocked down at 100 µg/mL / percentage of cockroaches knocked down at 500 µg/mL: Blattella germanica, 5 min, after 5 minutes, 12-week old males, read-out: KD (percentage of cockroaches knocked down), printed % KILLED; for percentage of cockroaches knocked down at 100 µg/mL: 100 mg/l; for percentage of cockroaches knocked down at 500 µg/mL: 500 mg/l. As for the experimental part: B. Study of the knock-down effect on cockroaches
The test was carried out on 12-week old male cockroaches (Blattella germanica) and the operation was carried out by direct spraying in a 13.5 cm diameter glass chamber. The product tested was dissolved in Isopar and 0.75 ml of solution was sprayed for 2.5 seconds on 20 cockroaches having been placed beforehand in the chamber. The KD (percentage of cockroaches knocked down) after 5 minutes at a dose of 500 mg/1 was determined and the products corresponding to 100% of KD insects at this does were evaluated at a dose of 100 mg/1 by the same protocol and the results are in Table II.

A short description of data set [3]: Acute toxicity on mammals by oral route. Type of data set: in vivo, rats. Conditions: rat, in vivo, rats, vehicle corn oil, read-out: LD50 O.R. (oral route). How it is done:
(§1) C. Acute toxicity on mammals
(§2) type: rats, vehicle: corn oil.
(§3) The results were expressed in LD50 mg/kg and the results obtained are as follows: […]

Data set [4] has as its system rats. Description: Acute toxicity on mammals by oral route. Type of data set: in vivo. To be noted: relative to C (cis E). As for the experimental part: as §1, §2, §3
Data set [5] in a line: Acute toxicity on mammals by intravenous route. Type of data set: in vivo, rats. To be noted: rat, in vivo, rats, vehicle PEG 300, read-out: LD50 I.R. (intravenous route). As for the experimental part:
as §1
(§4) type: rats, vehicle: PEG 300.
as §3

Data set [6] deals with rats. Description: Acute toxicity on mammals by intravenous route. To be noted: relative to C (cis E). The data set is classed as in vivo. How it is done:
as §1, §4, §3

Where [7] appears, read: conclusion in words, equivalent notably to C (cis E).

As for `C=CCC1=C(C)C(OC(=O)[C@@H]2[C@@H](C=C(C)C)C2(C)C)CC1=O` (stereo partly drawn) [Bioallethrin], the “KT50 (time where 50% of the insects were killed)” value in data set [1] was determined as 10 min.

Regarding `COC(=O)/C(F)=C/[C@@H]1[C@@H](C(=O)O[C@H](C#N)c2cccc(Oc3ccccc3)c2)C1(C)C` [Product A, (S) α-cyano-3-phenoxy-benzyl(1R, trans) 2,2-dimethyl-3-[(ΔZ) 2-fluoro-3-oxo-3-methoxy-propenyl]-cyclopropane carboxylate], the “KT50 (time where 50% of the insects were killed)” value in data set [1] turned out to be 2.7 min. The “killing activity on flies” value in data set [1] (setting [7]) was “good killing activity”. Further, the percentage of cockroaches knocked down at 100 µg/mL in data set [2] is 100%. Moreover, in data set [2] (setting [7]), the “killing activity on cockroaches” value was “good killing activity”. Also, the LD50 in data set [3] is > 2000 mg/kg; in data set [5], ~10 mg/kg. For the same compound, the “toxicity on mammals lower than that of C (cis E), orally” value in data set [4] is “at least 20 times”. In addition, the “toxicity on mammals lower than that of C (cis E), intravenously” value in data set [6] is listed as “at least 20 times”.

In the case of `COC(=O)/C(F)=C\[C@@H]1[C@@H](C(=O)O[C@H](C#N)c2cccc(Oc3ccccc3)c2)C1(C)C` [Product B], the percentage of cockroaches knocked down at 100 µg/mL in data set [2] was 47%. Moreover, the LD50 is > 200 mg/kg in data set [3] and 2.5 to 5 mg/kg in data set [5].

Turning to `COC(=O)/C(F)=C\[C@H]1[C@@H](C(=O)O[C@H](C#N)c2cccc(Oc3ccccc3)c2)C1(C)C` [Product C], the “KT50 (time where 50% of the insects were killed)” value in data set [1] worked out at 2.7 min. Moreover, in data set [2], the percentage of cockroaches knocked down at 100 µg/mL was found to be 95%. Besides, the LD50 was ~100 mg/kg in data set [3] and 0.1 to 0.5 mg/kg in data set [5].

`COC(=O)/C(F)=C/[C@H]1[C@@H](C(=O)O[C@H](C#N)c2cccc(Oc3ccccc3)c2)C1(C)C` [Product D]: the “KT50 (time where 50% of the insects were killed)” value in data set [1] came to 3.7 min. Also, the percentage of cockroaches knocked down at 500 µg/mL in data set [2] turned out to be 90%. The figures for the LD50 in data set [3] and in data set [5] were > 200 mg/kg and 2.5 to 7.5 mg/kg, respectively.

Regarding `CC(C)=CC1C(C(=O)OCN2C(=O)C3=C(CCCC3)C2=O)C1(C)C` (stereo not drawn) [TETRAMETHRIN, Tetramethrin], in data set [2], the percentage of cockroaches knocked down at 500 µg/mL came out at 70%.

One may read the LD50 as the dose expected to kill half of the subjects tested.

(Values after patent US5401771A, “Method of combatting household insects” (priority 1992, dated 1995).)
